Measurements as given in US8648085B2, “1, 5-dihydro-pyrazolo (3, 4-D) pyrimidin-4-one derivatives and their use as PDE9A mudulators for the treatment of CNS disorders” (Boehringer Ingelheim International GmbH, priority 2007, dated 2014).

Assays:
PDE1C = target: T1, PDE1C (Homo sapiens, UniProt Q14123); assay: PDE enzymatic activity assay (SPA), PDE1C, cAMP as substrate; assay type: biochemical; details: ratio IC50 PDE1C / IC50 PDE9A; for illustrative purposes
T1 construct: made in house; host or cells: SF9 insect cells (crude lysate used as enzyme source)
Protocol: (§1) The PDE enzymatic activity assays were run as SPA, in general according to the protocol of the manufacturer (Amersham Biosciences, product number: TRKQ 7100). As enzyme source, lysate (PBS with 1% Triton X-100 supplemented with protease inhibitors, cell debris removed by centrifugation at 13.000 rpm for 30 min) of SF 9 cell expressing the human PDE of interest was used. The total protein amount included in the assay varied upon infection and production efficacy of the SF9 cells and lay in the range of […].
(§2) In general, the assay conditions were as follows: • total assay volume: 40 μl • protein amount: 0.1-50 ng • substrate concentration (cGMP or cAMP): 20 nM; ˜1 mCi/l • incubation time: 60 min at room temperature • final DMSO concentration: 1%
(§3) The assays were run in 384-well format. The test reagents as well as the enzyme and the substrate were diluted in assay buffer. The assay buffer contained 50 mM Tris, 8.3 mM MgCl2, 1.7 mM EGTA, 0.1% BSA, 0.05% Tween 20; the pH of assay buffer was adjusted to 7.5. In case activity of PDE1C was analysed, 50 nM Calmodulin and 3 mM CaCl2 were included in the assay buffer. In case PDE9 activity was analyzed, the reaction was stopped by applying a PDE9 specific inhibitor (e.g. compounds according to WO2004/099210). PDE1C was analysed with cAMP as substrate, and PDE9 was analyzed with cGMP as substrate.
(§4) IC50 can be calculated in a conventional way, eventually with the help of GraphPadPrism or other suited software setting the positive control as 100 and the negative control as 0. For calculation of IC50 usually 8 dilutions of the test compound ([…]) are to be selected and tested following the aforementioned protocol.

PDE9A = PDE9A (Homo sapiens, UniProt O76083); assay: PDE enzymatic activity assay (SPA), PDE9A; assay type: biochemical; parameters: made in house; host or cells: SF9 insect cells (crude lysate used as enzyme source); details: cGMP substrate, for illustrative purposes; for inhibition at 10 µM: 10 micromolar; for IC50: given as ranges
Chain of PDE9A (O76083 whole entry): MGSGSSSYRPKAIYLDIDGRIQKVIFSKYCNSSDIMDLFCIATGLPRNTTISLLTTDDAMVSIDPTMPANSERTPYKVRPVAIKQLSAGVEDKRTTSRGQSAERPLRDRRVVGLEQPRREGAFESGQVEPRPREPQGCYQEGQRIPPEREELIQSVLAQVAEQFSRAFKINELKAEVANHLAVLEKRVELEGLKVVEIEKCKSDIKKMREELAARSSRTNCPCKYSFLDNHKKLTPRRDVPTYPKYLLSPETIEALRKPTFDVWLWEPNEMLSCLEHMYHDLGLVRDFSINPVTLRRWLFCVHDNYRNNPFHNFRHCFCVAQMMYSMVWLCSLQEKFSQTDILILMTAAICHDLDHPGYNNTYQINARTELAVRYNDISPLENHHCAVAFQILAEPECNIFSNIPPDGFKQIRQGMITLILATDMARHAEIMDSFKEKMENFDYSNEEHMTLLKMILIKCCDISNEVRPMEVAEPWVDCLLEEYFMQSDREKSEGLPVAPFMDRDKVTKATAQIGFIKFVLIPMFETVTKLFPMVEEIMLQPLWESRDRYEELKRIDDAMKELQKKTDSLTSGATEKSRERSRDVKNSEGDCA
Protocol: as §1, §2, §3
Calculation of % Inhibition:
The activity of the positive control (minus the negative control=background) is set to 100% and activity in the presence of test compound is expressed relative to these 100%.
Within this setting, an inhibition above 100% might be possible due to the nature of the variation of the positive control within the assay, however, in this case the reported % inhibition had been adjusted to 100%.
as §4

Row | Selectivity = IC50 PDE 1C/IC50 PDE9A (both nanomolar) (PDE1C) | inhibition at 10 µM (PDE9A) [%] | IC50 (PDE9A) [nM] | SMILES
1 | 28 | 86 | 10 to 500 | Cc1ccc(C)c(-n2ncc3c(=O)[nH]c(Cc4ccccc4OC(F)(F)F)nc32)c1 [Example 18, 1-(2,5-Dimethyl-phenyl)-6-(2-trifluoromethoxy-benzyl)-1,5-ihydro-pyrazolo[3,4-d]pyrimidin-4-one]
2 | 21 | 93 | 10 to 500 | O=c1[nH]c(Cc2ccccc2OC(F)(F)F)nc2c1cnn2-c1cc(Cl)ccc1Br [Example 8, 1-(2-Bromo-5-chloro-phenyl)-6-(2-trifluoromethoxy-benzyl)-1,5-dihydro-pyrazolo[3,4-d]pyrimidin-4-one]
3 | 14 | 98 | 10 to 500 | Cc1ccccc1-n1ncc2c(=O)[nH]c(Cc3ccccc3OC(F)(F)F)nc21 [Example 2, 1-o-Tolyl-6-(2-trifluoromethoxy-benzyl)-1,5-dihydro-pyrazolo[3,4-d] pyrimidin-4-one]
4 | 8 | 102 | 10 to 500 | O=c1[nH]c(Cc2ccccc2OC(F)(F)F)nc2c1cnn2-c1ccc(F)cc1F [Example 12, 1-(2,4-Difluoro-phenyl)-6-(2-trifluoromethoxy-benzyl)-1,5-dihydro-pyrazolo[3,4-d]pyrimidin-4-one]
5 | 8 | 96 | 10 to 500 | Cc1c(F)cccc1-n1ncc2c(=O)[nH]c(Cc3ccccc3OC(F)(F)F)nc21 [Example 28, 1-(3-Fluoro-2-methyl-phenyl)-6-(2-trifluoromethoxy-benzyl)-1,5-dihydro-pyrazolo[3,4-d]pyrimidin-4-one]
6 | 14 | 95 | 10 to 500 | Cc1ccc(F)cc1-n1ncc2c(=O)[nH]c(Cc3ccccc3OC(F)(F)F)nc21 [Example 14, 1-(5-Fluoro-2-methyl-phenyl)-6-(2-trifluoromethoxy-benzyl)-1,5-dihydro-pyrazolo[3,4-d]pyrimidin-4-one]
7 | 71 | 93 | 10 to 500 | O=c1[nH]c(Cc2ccccc2OC(F)(F)F)nc2c1cnn2-c1cc(Cl)ccc1Cl [Example 16, 1-(2,5-Dichloro-phenyl)-6-(2-trifluoromethoxy-benzyl)-1,5-dihydro-pyrazolo[3,4-d]pyrimidin-4-one]
8 | 39 | 99 | 10 to 500 | Cc1ccncc1-n1ncc2c(=O)[nH]c(Cc3ccccc3OC(F)(F)F)nc21 [Example 1, 1-(4-Methyl-pyridin-3-yl)-6-(2-tri-fluoromethoxy-benzyl)-1,5-dihydro-pyrazolo[3,4-d]pyrimidin-4-one]
9 | 11 | 91 | 10 to 500 | O=c1[nH]c(Cc2ccccc2OC(F)(F)F)nc2c1cnn2-c1cnccc1C(F)(F)F [Example 32, 6-(2-Trifluoromethoxy-benzyl)-1-(4-trifluoromethyl-pyridin-3-yl)-1,5-dihydro-pyrazolo[3,4-d]pyrimidin-4-one]
10 | 10 | 96 | 10 to 500 | O=c1[nH]c(Cc2ccccc2OC(F)(F)F)nc2c1cnn2-c1ccc(F)cc1Cl [Example 13, 1-(2-Chloro-4-fluoro-phenyl)-6-(2-trifluoromethoxy-benzyl)-1,5-dihydro-pyrazolo[3,4-d]pyrimidin-4-one]
11 | 7 | 88 | > 500 | Cc1ccc(Br)c(-n2ncc3c(=O)[nH]c(Cc4ccccc4OC(F)(F)F)nc32)c1 [Example 10, 1-(2-Bromo-5-methyl-phenyl)-6-(2-trifluoromethoxy-benzyl)-1,5-dihydro-pyrazolo[3,4-d]pyrimidin-4-one]

Further lines, the molecule ahead of its results:

Row | SMILES | Selectivity = IC50 PDE 1C/IC50 PDE9A (both nanomolar) (PDE1C) | inhibition at 10 µM (PDE9A) [%] | IC50 (PDE9A) [nM]
12 | COc1ccc(Cl)c(-n2ncc3c(=O)[nH]c(Cc4ccccc4OC(F)(F)F)nc32)c1 [Example 22, 1-(2-Chloro-5-methoxy-phenyl)-6-(2-trifluoromethoxy-benzyl)-1,5-dihydro-pyrazolo[3,4-d]pyrimidin-4-one] | 14 | 98 | 10 to 500
13 | O=c1[nH]c(Cc2ccccc2OC(F)(F)F)nc2c1cnn2-c1ncc(F)cc1F [Example 39, 6-(2-Trifluoromethoxy-benzyl)-1-(3,5-difluoro-pyridin-2-yl)-1,5-dihydro-pyrazolo[3,4-d]pyrimidin-4-one] | 4 | 97 | 10 to 500
14 | O=c1[nH]c(Cc2ccccc2OC(F)(F)F)nc2c1cnn2-c1c(Cl)cccc1Cl [Example 25, 1-(2,6-Dichloro-phenyl)-6-(2-trifluoromethoxy-benzyl)-1,5-dihydro-pyrazolo[3,4-d]pyrimidin-4-one] | 24 | 58 | > 500
15 | O=C(O)c1cccc(-n2ncc3c(=O)[nH]c(Cc4ccccc4OC(F)(F)F)nc32)c1 [Example 30-1, 1-(3-Carbox-phenyl)-6-(2-trifluoromethoxy-benzyl)-1,5-dihydro-pyrazolo[3,4-d]pyrimidin-4-one] | 55 | 101 | 10 to 500
16 | CC(=O)Nc1cccc(-n2ncc3c(=O)[nH]c(Cc4ccccc4OC(F)(F)F)nc32)c1 [Example 30-5, 1-(3-Acetamido-phenyl)-6-(2-trifluoromethoxy-benzyl)-1,5-dihydro-pyrazolo[3,4-d]pyrimidin-4-one] | 26 | 97 | 10 to 500
17 | CCOc1ccc(Cl)c(-n2ncc3c(=O)[nH]c(Cc4ccccc4OC(F)(F)F)nc32)c1 [Example 20, 1-(2-Chloro-5-ethoxy-phenyl)-6-(2-trifluoromethoxy-benzyl)-1,5-dihydro-pyrazolo[3,4-d]pyrimidin-4-one] | 4 | 87 | 10 to 500
18 | O=C(c1ccc(Cl)c(-n2ncc3c(=O)[nH]c(Cc4ccccc4OC(F)(F)F)nc32)c1)N1CCCCC1 [Example 35, 1-[2-Chloro-5-(piperidine-1-carbonyl)-phenyl]-6-(2-trifluoromethoxy-benzyl)-1,5-dihydro-pyrazolo[3,4-d]pyrimidin-4-one] | 10 | 93 | 10 to 500
19 | O=C(c1ccc(Cl)c(-n2ncc3c(=O)[nH]c(Cc4ccccc4OC(F)(F)F)nc32)c1)N1CCOCC1 [Example 37, 1-[2-Chloro-5-(N-morpholino-carbonyl)-phenyl]-6-(2-trifluoromethoxy-benzyl)-1,5-dihydro-pyrazolo[3,4-d]pyrimidin-4-one] | 27 | 99 | 10 to 500
20 | COc1c(F)cccc1-n1ncc2c(=O)[nH]c(Cc3ccccc3OC(F)(F)F)nc21 [Example 30, 1-(2-Methoxy,3-fluoro-phenyl)-6-(2-trifluoromethoxy-benzyl)-1,5-dihydro-pyrazolo[3,4-d]pyrimidin-4-one] | 8 | 95 | 10 to 500
